# According to PubChem BioAssay (NCI):
#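 Growth conditions: 96-well plates. Treatment: test compound, 48 hours, 5 concentrations. Analysis: linear interpolation between bracketing concentrations; unreached endpoints set to highest concentration. GI50 is the concentration that inhibits growth by half. TGI is the concentration that stops growth completely.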
# What was measured:
# Test in all cases: NCI anticancer screen, dose series, 48 h
# SK-MEL-5 melanoma = system: SK-MEL-5 melanoma
# U251 CNS = system: U251 CNS
# RXF 393 renal = system: RXF 393 renal
# NCI-H23 lung = system: NCI-H23 lung
# CAKI-1 renal = system: CAKI-1 renal
# UACC-62 melanoma = system: UACC-62 melanoma
# HS 578T breast = system: HS 578T breast
# COLO 205 colon = system: COLO 205 colon
# OVCAR-4 ovarian = system: OVCAR-4 ovarian
# SK-MEL-28 melanoma = system: SK-MEL-28 melanoma
# KM12 colon = system: KM12 colon
# SF-295 CNS = system: SF-295 CNS
# MOLT-4 leukemia = system: MOLT-4 leukemia
# HL-60(TB) leukemia = system: HL-60(TB) leukemia
# MCF7 breast = system: MCF7 breast
# MDA-MB-468 breast = system: MDA-MB-468 breast
# NCI-H226 lung = system: NCI-H226 lung
# HCT-116 colon = system: HCT-116 colon
# SNB-19 CNS = system: SNB-19 CNS
# 786-0 renal = system: 786-0 renal
# SNB-75 CNS = system: SNB-75 CNS
# MDA-MB-231 breast = system: MDA-MB-231 breast
# CCRF-CEM leukemia = system: CCRF-CEM leukemia
# MDA-MB-435 = system: MDA-MB-435
# SR leukemia = system: SR leukemia
# A498 renal = system: A498 renal
# UACC-257 melanoma = system: UACC-257 melanoma
# SF-268 CNS = system: SF-268 CNS
# SK-MEL-2 melanoma = system: SK-MEL-2 melanoma
# T-47D breast = system: T-47D breast
# BT-549 breast = system: BT-549 breast
# OVCAR-8 ovarian = system: OVCAR-8 ovarian
# PC-3 prostate = system: PC-3 prostate
# MALME-3M melanoma = system: MALME-3M melanoma
# SK-OV-3 ovarian = system: SK-OV-3 ovarian
# SN12C renal = system: SN12C renal
# LOX IMVI melanoma = system: LOX IMVI melanoma
# OVCAR-5 ovarian = system: OVCAR-5 ovarian
# HCT-15 colon = system: HCT-15 colon
# EKVX NSCLC = system: EKVX NSCLC
# NCI-H522 lung = system: NCI-H522 lung
# IGROV1 ovarian = system: IGROV1 ovarian
# HT29 colon = system: HT29 colon
# K-562 leukemia = system: K-562 leukemia
# OVCAR-3 ovarian = system: OVCAR-3 ovarian
# SF-539 CNS = system: SF-539 CNS
# DU-145 prostate = system: DU-145 prostate
# UO-31 renal = system: UO-31 renal
# RPMI-8226 leukemia = system: RPMI-8226 leukemia
# HOP-62 NSCLC = system: HOP-62 NSCLC
# M14 melanoma = system: M14 melanoma
# TK-10 renal = system: TK-10 renal
# HOP-92 NSCLC = system: HOP-92 NSCLC
# HCC-2998 colon = system: HCC-2998 colon
smiles,measurement,setting,value
CN1CCN(C(=O)CCN(C(=O)Oc2cc3c(c4ccccc24)[C@H](CCl)CN3C(=O)c2cc3cc(OCCCN4CCC4)ccc3[nH]2)[C@H]2CCSSC2)CC1,GI50,SK-MEL-5 melanoma,152 nM
same,TGI,SK-MEL-5 melanoma,336 nM
same,GI50,U251 CNS,100 nM
same,TGI,U251 CNS,377 nM
same,GI50,RXF 393 renal,189 nM
same,TGI,RXF 393 renal,454 nM
same,GI50,NCI-H23 lung,65.7 nM
same,TGI,NCI-H23 lung,211 nM
same,GI50,CAKI-1 renal,150 nM
same,TGI,CAKI-1 renal,509 nM
same,GI50,UACC-62 melanoma,115 nM
same,TGI,UACC-62 melanoma,294 nM
same,GI50,HS 578T breast,1230 nM
same,TGI,HS 578T breast,3170 nM
same,GI50,COLO 205 colon,431 nM
same,TGI,COLO 205 colon,2260 nM
same,GI50,OVCAR-4 ovarian,1360 nM
same,TGI,OVCAR-4 ovarian,2780 nM
same,GI50,SK-MEL-28 melanoma,208 nM
same,TGI,SK-MEL-28 melanoma,502 nM
same,GI50,KM12 colon,308 nM
same,TGI,KM12 colon,1510 nM
same,GI50,SF-295 CNS,107 nM
same,TGI,SF-295 CNS,291 nM
same,GI50,MOLT-4 leukemia,231 nM
same,TGI,MOLT-4 leukemia,1580 nM
same,GI50,HL-60(TB) leukemia,390 nM
same,TGI,HL-60(TB) leukemia,2030 nM
same,GI50,MCF7 breast,49.5 nM
same,TGI,MCF7 breast,1430 nM
same,GI50,MDA-MB-468 breast,148 nM
same,TGI,MDA-MB-468 breast,442 nM
same,GI50,NCI-H226 lung,148 nM
same,TGI,NCI-H226 lung,1160 nM
same,GI50,HCT-116 colon,234 nM
same,TGI,HCT-116 colon,1040 nM
same,GI50,SNB-19 CNS,272 nM
same,TGI,SNB-19 CNS,1650 nM
same,GI50,786-0 renal,330 nM
same,TGI,786-0 renal,1140 nM
same,GI50,SNB-75 CNS,497 nM
same,TGI,SNB-75 CNS,2320 nM
same,GI50,MDA-MB-231 breast,402 nM
same,TGI,MDA-MB-231 breast,1450 nM
same,GI50,CCRF-CEM leukemia,269 nM
same,TGI,CCRF-CEM leukemia,3510 nM
same,GI50,MDA-MB-435,285 nM
same,TGI,MDA-MB-435,1170 nM
same,GI50,SR leukemia,66.1 nM
same,TGI,SR leukemia,906 nM
same,GI50,A498 renal,199 nM
same,TGI,A498 renal,386 nM
same,GI50,UACC-257 melanoma,378 nM
same,TGI,UACC-257 melanoma,1810 nM
same,GI50,SF-268 CNS,281 nM
same,TGI,SF-268 CNS,1630 nM
same,GI50,SK-MEL-2 melanoma,345 nM
same,TGI,SK-MEL-2 melanoma,1060 nM
same,GI50,T-47D breast,570 nM
same,TGI,T-47D breast,2400 nM
same,GI50,BT-549 breast,1020 nM
same,TGI,BT-549 breast,2460 nM
same,GI50,OVCAR-8 ovarian,136 nM
same,TGI,OVCAR-8 ovarian,500 nM
same,GI50,PC-3 prostate,378 nM
same,TGI,PC-3 prostate,2070 nM
same,GI50,MALME-3M melanoma,232 nM
same,TGI,MALME-3M melanoma,745 nM
same,GI50,SK-OV-3 ovarian,313 nM
same,TGI,SK-OV-3 ovarian,7080 nM
same,GI50,SN12C renal,527 nM
same,TGI,SN12C renal,9020 nM
same,GI50,LOX IMVI melanoma,85.5 nM
same,TGI,LOX IMVI melanoma,314 nM
same,GI50,OVCAR-5 ovarian,390 nM
same,TGI,OVCAR-5 ovarian,1390 nM
same,GI50,HCT-15 colon,209 nM
same,TGI,HCT-15 colon,1350 nM
same,GI50,EKVX NSCLC,351 nM
same,TGI,EKVX NSCLC,1550 nM
same,GI50,NCI-H522 lung,254 nM
same,TGI,NCI-H522 lung,1280 nM
same,GI50,IGROV1 ovarian,545 nM
same,TGI,IGROV1 ovarian,2450 nM
same,GI50,HT29 colon,211 nM
same,TGI,HT29 colon,963 nM
same,GI50,K-562 leukemia,225 nM
same,TGI,K-562 leukemia,1590 nM
same,GI50,OVCAR-3 ovarian,426 nM
same,TGI,OVCAR-3 ovarian,1880 nM
same,GI50,SF-539 CNS,325 nM
same,TGI,SF-539 CNS,1200 nM
same,GI50,DU-145 prostate,165 nM
same,TGI,DU-145 prostate,1250 nM
same,GI50,UO-31 renal,190 nM
same,TGI,UO-31 renal,480 nM
same,GI50,RPMI-8226 leukemia,570 nM
same,TGI,RPMI-8226 leukemia,3870 nM
same,GI50,HOP-62 NSCLC,146 nM
same,TGI,HOP-62 NSCLC,678 nM
same,GI50,M14 melanoma,195 nM
same,TGI,M14 melanoma,653 nM
same,GI50,TK-10 renal,1560 nM
same,TGI,TK-10 renal,3570 nM
same,GI50,HOP-92 NSCLC,997 nM
same,TGI,HOP-92 NSCLC,3640 nM
same,GI50,HCC-2998 colon,146 nM
same,TGI,HCC-2998 colon,334 nM
